Assay results from PubChem BioAssay AID1259407 (Chemical Carcinogenesis Research Information System (CCRIS), 2018).
The source made the active and inactive calls. No rule for the calls is given here.

System: CCRIS mutagenicity, Ames/micronucleus/aberration tests
Assay: CCRIS mutagenicity studies
[1] = Test System: AMES SALMONELLA TYPHIMURIUM, Strain/Indicator: TA98, Metabolic Activation: NONE, Method: PREINCUBATION
[2] = Test System: AMES SALMONELLA TYPHIMURIUM, Strain/Indicator: TA100, Metabolic Activation: NONE, Method: PREINCUBATION
[3] = Test System: AMES SALMONELLA TYPHIMURIUM, Strain/Indicator: TA1535, Metabolic Activation: NONE, Method: PREINCUBATION
[4] = Test System: AMES SALMONELLA TYPHIMURIUM, Strain/Indicator: TA98, Metabolic Activation: NONE, Method: STANDARD PLATE
[5] = Test System: AMES SALMONELLA TYPHIMURIUM, Strain/Indicator: TA100, Metabolic Activation: NONE, Method: STANDARD PLATE
[6] = Test System: AMES SALMONELLA TYPHIMURIUM, Strain/Indicator: TA100, Metabolic Activation: RAT, LIVER, S-9, AROCLOR 1254, Method: PREINCUBATION
[7] = Test System: AMES SALMONELLA TYPHIMURIUM, Strain/Indicator: TA98, Metabolic Activation: RAT, LIVER, S-9, AROCLOR 1254, Method: STANDARD PLATE
[8] = Test System: AMES SALMONELLA TYPHIMURIUM, Strain/Indicator: TA100, Metabolic Activation: RAT, LIVER, S-9, AROCLOR 1254, Method: STANDARD PLATE

**Q.** `S=C(NC1CCCCC1)NC1CCCCC1` was tested. Which mutagenic call (Test System: AMES SALMONELLA TYPHIMURIUM, Strain/Indicator: TA97, Metabolic Activation: HAMSTER, LIVER, S-9, AROCLOR 1254 (10 OR 30%), Method: PREINCUBATION) did it give?
**A.** inactive; negative

**Q.** What about the mutagenic call (Test System: AMES SALMONELLA TYPHIMURIUM, Strain/Indicator: TA97, Metabolic Activation: NONE, Method: PREINCUBATION) of the same compound?
**A.** inactive; negative

**Q.** And the mutagenic call (Test System: AMES SALMONELLA TYPHIMURIUM, Strain/Indicator: TA97, Metabolic Activation: RAT, LIVER, S-9, AROCLOR 1254 (10%), Method: PREINCUBATION)?
**A.** inactive; negative

**Q.** What about the mutagenic call (Test System: AMES SALMONELLA TYPHIMURIUM, Strain/Indicator: TA97, Metabolic Activation: RAT, LIVER, S-9, AROCLOR 1254 (30%), Method: PREINCUBATION) of the same compound?
**A.** inactive; negative

**Q.** What about the mutagenic call (Test System: AMES SALMONELLA TYPHIMURIUM, Strain/Indicator: TA98, Metabolic Activation: HAMSTER, LIVER, S-9, AROCLOR 1254 (10 OR 30%), Method: PREINCUBATION) of the same compound?
**A.** inactive; negative

**Q.** And the mutagenic call [1]?
**A.** inactive; negative

**Q.** And the mutagenic call (Test System: AMES SALMONELLA TYPHIMURIUM, Strain/Indicator: TA98, Metabolic Activation: RAT, LIVER, S-9, AROCLOR 1254 (10 OR 30%), Method: PREINCUBATION)?
**A.** inactive; negative

**Q.** And the mutagenic call (Test System: AMES SALMONELLA TYPHIMURIUM, Strain/Indicator: TA100, Metabolic Activation: HAMSTER, LIVER, S-9, AROCLOR 1254 (10 OR 30%), Method: PREINCUBATION)?
**A.** inactive; negative

**Q.** And the mutagenic call [2]?
**A.** inactive; negative

**Q.** And the mutagenic call (Test System: AMES SALMONELLA TYPHIMURIUM, Strain/Indicator: TA100, Metabolic Activation: RAT, LIVER, S-9, AROCLOR 1254 (10 OR 30%), Method: PREINCUBATION)?
**A.** inactive; negative

**Q.** What about the mutagenic call (Test System: AMES SALMONELLA TYPHIMURIUM, Strain/Indicator: TA1535, Metabolic Activation: HAMSTER, LIVER, S-9, AROCLOR 1254 (10 OR 30%), Method: PREINCUBATION) of the same compound?
**A.** inactive; negative

**Q.** And the mutagenic call [3]?
**A.** inactive; negative

**Q.** What about the mutagenic call (Test System: AMES SALMONELLA TYPHIMURIUM, Strain/Indicator: TA1535, Metabolic Activation: RAT, LIVER, S-9, AROCLOR 1254 (10 OR 30%), Method: PREINCUBATION) of the same compound?
**A.** inactive; negative

**Q.** What about the mutagenic call (Test System: AMES SALMONELLA TYPHIMURIUM, Strain/Indicator: TA1537, Metabolic Activation: HAMSTER, LIVER, S-9, AROCLOR 1254 (10%), Method: PREINCUBATION) of the same compound?
**A.** inactive; negative

**Q.** What about the mutagenic call (Test System: E. COLI, Strain/Indicator: WP2 UVRA, Metabolic Activation: HAMSTER, LIVER, S-9, AROCLOR 1254, Method: STANDARD PLATE) of the same compound?
**A.** inactive; negative

**Q.** What about the mutagenic call (Test System: E. COLI, Strain/Indicator: WP2 UVRA, Metabolic Activation: HAMSTER, LIVER, S-9, Method: STANDARD PLATE) of the same compound?
**A.** inactive; negative

**Q.** And the mutagenic call (Test System: E. COLI, Strain/Indicator: WP2 UVRA, Metabolic Activation: MOUSE, LIVER, S-9, AROCLOR 1254, Method: STANDARD PLATE)?
**A.** inactive; negative

**Q.** What about the mutagenic call (Test System: E. COLI, Strain/Indicator: WP2 UVRA, Metabolic Activation: MOUSE, LIVER, S-9, Method: STANDARD PLATE) of the same compound?
**A.** inactive; negative

**Q.** And the mutagenic call (Test System: E. COLI, Strain/Indicator: WP2 UVRA, Metabolic Activation: NONE, Method: STANDARD PLATE)?
**A.** inactive; negative

**Q.** And the mutagenic call (Test System: E. COLI, Strain/Indicator: WP2 UVRA, Metabolic Activation: RAT, LIVER, S-9, AROCLOR 1254, Method: STANDARD PLATE)?
**A.** inactive; negative

**Q.** What about the mutagenic call (Test System: E. COLI, Strain/Indicator: WP2 UVRA, Metabolic Activation: RAT, LIVER, S-9, Method: STANDARD PLATE) of the same compound?
**A.** inactive; negative

**Q.** And the mutagenic call (Test System: MOUSE LYMPHOMA, Strain/Indicator: L5178Y (TK+/TK-), Metabolic Activation: RAT, LIVER, S-9, AROCLOR 1254, Method: SUSPENSION/PLATE)?
**A.** inactive; negative

**Q.** For `Cc1cccc2c([N+](=O)[O-])cccc12`, which mutagenic call [1] is on record?
**A.** active; positive

**Q.** Which results are given for `C/C(O)=C1/C(=O)[C@@H]2[C@H]3c4c[nH]c5cccc(c45)C[C@H]3C(C)(C)N2C1=O`?
**A.** mutagenic call [2]: inactive; negative; mutagenic call (Test System: AMES SALMONELLA TYPHIMURIUM, Strain/Indicator: TA100, Metabolic Activation: RAT, LIVER, S-9, PHENOBARBITAL, Method: PREINCUBATION): inactive; negative

**Q.** With `O=C/C(Br)=C/c1ccccc1` as the compound, how does the mutagenic call [1] read?
**A.** active; positive

**Q.** And the mutagenic call (Test System: AMES SALMONELLA TYPHIMURIUM, Strain/Indicator: TA98, Metabolic Activation: NONE, Method: PREINCUBATION, LIQUID INCUBATION)?
**A.** active; positive

**Q.** What about the mutagenic call [4] of the same compound?
**A.** active; positive

**Q.** What about the mutagenic call (Test System: AMES SALMONELLA TYPHIMURIUM, Strain/Indicator: TA98, Metabolic Activation: RAT, LIVER, S-9, AROCLOR 1254, Method: PREINCUBATION) of the same compound?
**A.** active; positive

**Q.** What about the mutagenic call (Test System: AMES SALMONELLA TYPHIMURIUM, Strain/Indicator: TA98, Metabolic Activation: RAT, LIVER, S-9, PCB, Method: STANDARD PLATE) of the same compound?
**A.** active; positive

**Q.** And the mutagenic call [2]?
**A.** active; positive

**Q.** What about the mutagenic call [5] of the same compound?
**A.** active; positive

**Q.** What about the mutagenic call [6] of the same compound?
**A.** inactive; negative

**Q.** What about the mutagenic call (Test System: AMES SALMONELLA TYPHIMURIUM, Strain/Indicator: TA100, Metabolic Activation: RAT, LIVER, S-9, PCB, Method: STANDARD PLATE) of the same compound?
**A.** active; positive

**Q.** What about the mutagenic call [3] of the same compound?
**A.** active; positive

**Q.** And the mutagenic call (Test System: AMES SALMONELLA TYPHIMURIUM, Strain/Indicator: TA1535, Metabolic Activation: NONE, Method: PREINCUBATION, LIQUID INCUBATION)?
**A.** active; positive

**Q.** And the mutagenic call (Test System: AMES SALMONELLA TYPHIMURIUM, Strain/Indicator: TA1535, Metabolic Activation: RAT, LIVER, S-9, AROCLOR 1254, Method: PREINCUBATION)?
**A.** inactive; negative

**Q.** And the mutagenic call (Test System: AMES SALMONELLA TYPHIMURIUM, Strain/Indicator: TA1538, Metabolic Activation: NONE, Method: PREINCUBATION)?
**A.** active; positive

**Q.** What about the mutagenic call (Test System: AMES SALMONELLA TYPHIMURIUM, Strain/Indicator: TA1538, Metabolic Activation: NONE, Method: PREINCUBATION, LIQUID INCUBATION) of the same compound?
**A.** active; positive

**Q.** What about the mutagenic call (Test System: AMES SALMONELLA TYPHIMURIUM, Strain/Indicator: TA1538, Metabolic Activation: RAT, LIVER, S-9, AROCLOR 1254, Method: PREINCUBATION) of the same compound?
**A.** active; positive

**Q.** And the mutagenic call (Test System: AMES SALMONELLA TYPHIMURIUM, Strain/Indicator: TA2637, Metabolic Activation: NONE, Method: STANDARD PLATE)?
**A.** active; positive

**Q.** And the mutagenic call (Test System: AMES SALMONELLA TYPHIMURIUM, Strain/Indicator: TA2637, Metabolic Activation: RAT, LIVER, S-9, PCB, Method: STANDARD PLATE)?
**A.** active; positive

**Q.** Which mutagenic call (Test System: AMES SALMONELLA TYPHIMURIUM, Strain/Indicator: TA97A, Metabolic Activation: NONE, Method: PREINCUBATION) does the source give for `Cc1c2cccc(C)c2nc2c1ccc1ccccc12` here?
**A.** inactive; negative

**Q.** What about the mutagenic call [1] of the same compound?
**A.** active; positive

**Q.** What about the mutagenic call [2] of the same compound?
**A.** inactive; negative

**Q.** What about the mutagenic call (Test System: AMES SALMONELLA TYPHIMURIUM, Strain/Indicator: TA102, Metabolic Activation: NONE, Method: PREINCUBATION) of the same compound?
**A.** active; positive

**Q.** Which mutagenic call [4] does the source give for `NC(Cc1ccc(O)cc1)C(=O)O` (stereo not drawn) here?
**A.** inactive; negative

**Q.** And the mutagenic call [7]?
**A.** inactive; negative

**Q.** What about the mutagenic call [5] of the same compound?
**A.** inactive; negative

**Q.** What about the mutagenic call [8] of the same compound?
**A.** inactive; negative

**Q.** Which mutagenic call [2] does the source give for `NCCc1c[nH]c2ccc(O)cc12` here?
**A.** inactive; negative

**Q.** With `CC(=O)OCc1ccccc1N=Nc1ccc(N(C)C)cc1` as the compound, how does the mutagenic call (Test System: AMES SALMONELLA TYPHIMURIUM, Strain/Indicator: TA98, Metabolic Activation: RAT, LIVER, S-9, POLYCHLORINATED BIPHENYLS, Method: PREINCUBATION) read?
**A.** active; positive

**Q.** What about the mutagenic call (Test System: AMES SALMONELLA TYPHIMURIUM, Strain/Indicator: TA100, Metabolic Activation: RAT, LIVER, S-9, POLYCHLORINATED BIPHENYLS, Method: PREINCUBATION) of the same compound?
**A.** active; positive

**Q.** For `CC(=O)Nc1ccc([C@@H]2O[C@@H]2C(=O)c2ccccc2)cc1`, which mutagenic call [4] is on record?
**A.** inactive; negative

**Q.** And the mutagenic call [7]?
**A.** active; positive

**Q.** What about the mutagenic call [5] of the same compound?
**A.** active; positive

**Q.** And the mutagenic call [8]?
**A.** active; positive

**Q.** For `c1ccc2c(c1)ccc1ncccc12`, which mutagenic call (End Point: IN VITRO CHROMOSOMAL ABERRATIONS, Test System: CHL CELLS, Metabolic Activation: RAT, LIVER, S-9, SODIUM PHENOBARBITAL AND 5,6-BENZOFLAVONE) is on record?
**A.** active; positive (structural changes)

**Q.** And the mutagenic call (End Point: IN VITRO MICRONUCLEUS, Test System: CHL/IU CELLS, Metabolic Activation: NONE)?
**A.** active; positive

**Q.** And the mutagenic call [7]?
**A.** active; positive

**Q.** And the mutagenic call [6]?
**A.** active; positive

**Q.** And the mutagenic call [8]?
**A.** active; positive

**Q.** What about the mutagenic call (Test System: AMES SALMONELLA TYPHIMURIUM, Strain/Indicator: TA100, Metabolic Activation: RAT, LIVER, S-9, PHENOBARBITAL AND 5,6-BENZOFLAVONE, Method: PREINCUBATION) of the same compound?
**A.** active; positive
